The text below walks through data of patent US20250376689A1, “OLIGONUCLEOTIDES HAVING 6-THIO-2'-DEOXYGUANOSINE RESIDUES AND USES THEREOF” (City of Hope, priority 2021, published 2025).

Data set [1] relates to resting human lymphocytes. In words: Apoptosis/viability of resting human PBMCs (Annexin V/7AAD flow cytometry). Format: cell-based. The note with it: PBMCs from 3 healthy donors, treated 2 days. How it is done:
(§1) PMBCs from 3 healthy donors were seeded at a density of 10^7/mL and treated with CpG alone, 6tdG alone, combination of CpG and 6tdG, CpG(6tdG)6-p, CpG(6tdG)5G for 2 days. Cell apoptosis was measured using flow cytometry after staining for Annexin V and 7AAD. Representative results obtained from 3 independent experiments; means±SEM (n=3). (FIG. 4B) Human T cells isolated from 3 healthy donor PBMCs using negative selection were activated with CD3/CD28 beads in the presence of 20 ng/mL human IL-2 to induce proliferation. After activation, T cells were incubated in the presence of CpG alone, 6tdG alone, combination of CpG and 6tdG, CpG(6tdG)6-p or CpG(6tdG)5G for the indicated times before subject to viability analysis in flow cytometry. (FIG. 4C) Activated and proliferating T cells, but not naïve/resting T cells, have high levels of telomerase activity. The telomerase activity was assayed using TRAPeze kit (EMD Millipore), a telomerase repeated amplification protocol, and PCR products were qualitatively analyzed in a PAGE gel.
(In general: A flow cytometer gives signals particle by particle.)

A further data set has as its system activated T cells. The data set is described as follows: Viability of CD3/CD28-activated human T cells (flow cytometry). Format: cell-based. As to conditions: human T cells activated with CD3/CD28 beads and IL-2. How it is done:
as §1

Data set [2] concerns TBK1 signaling downstream from STING. The data set is described as follows: Western blot of activated and total TBK1 in DCs co-cultured with pretreated RM9 cells. In kind it is cell-based, mouse. The protocol: FIG. 8A: RM9 prostate cancer cells were treated with a combination of 5 μM 6tdG and 1 μM CpG, 1 μM CpG(6tdG)6-p or PBS overnight, washed and incubated for the additional 3 days in fresh media. The dying cancer cells were then harvested and co-cultured for 18 h with freshly isolated, mouse primary splenic DC at a ratio of 1:10. The percentages of activated DCs (CD11c+MHC II+/CD80+ or CD86+) were analyzed by flow cytometry. FIG. 8B: Bone-marrow derived dendritic cells (BMDCs) were co-cultured with cancer cells in the presence of CpG alone, 6tdG alone, combination of CpG and 6tdG, or CpG(6tdG)6-p for 3 days. The expression of IFN-β mRNA was analyzed by real-time qPCR. Shown are results from three independent experiments; means±SEM (n=3); ****P<0.0001; *P<0.05 compared to the untreated group. FIG. 8C: TBK1 signaling downstream from STING is activated in primary mouse DCs co-cultured with RM9 cells pretreated using 6tdG alone, in combination with CpG or by CpG-(6tdG)6-p oligomer. The protein content of dendritic cells was analyzed using western blot to evaluate levels of activated and total TBK1. The protein levels were normalized to beta-actin and quantified densitometrically.
In general terms: In western blotting, separated proteins are transferred to a membrane and probed.

For data set [3], the system named is telomerase-negative normal cells. The note with it: cited from earlier work.

Take `Nc1nc2c(ncn2[C@H]2C[C@H](O)[C@@H](CO)O2)c(=S)[nH]1` [6tdG, 6-thio-2′-deoxyguanosine]: the “viability of resting human lymphocytes” value in data set [1] is reported as “Neither 6tdG nor CpG-6tdG oligomers affect viability”. Also, in the data set on activated T cells, the “cytotoxicity to activated T cells” value is reported as “cytotoxic to activated T cells”. For the same compound, the “TBK1 signaling in primary mouse DCs” value in data set [2] is reported as “activated”. For the same compound, the “cytotoxic effects on telomerase-negative normal cells” value in data set [3] is recorded as “minimal cytotoxic effects”.
